Experimental findings from US11535630B2, “Apelin receptor (APJ) agonists and uses thereof” (Research Triangle Institute, priority 2015, dated 2022) are described below.

SMILES strings stand for the structures.

The first assay concerns the target T1, apelin receptor (APJ) (Homo sapiens, UniProt P35414).
T1 sequence (P35414 1-380): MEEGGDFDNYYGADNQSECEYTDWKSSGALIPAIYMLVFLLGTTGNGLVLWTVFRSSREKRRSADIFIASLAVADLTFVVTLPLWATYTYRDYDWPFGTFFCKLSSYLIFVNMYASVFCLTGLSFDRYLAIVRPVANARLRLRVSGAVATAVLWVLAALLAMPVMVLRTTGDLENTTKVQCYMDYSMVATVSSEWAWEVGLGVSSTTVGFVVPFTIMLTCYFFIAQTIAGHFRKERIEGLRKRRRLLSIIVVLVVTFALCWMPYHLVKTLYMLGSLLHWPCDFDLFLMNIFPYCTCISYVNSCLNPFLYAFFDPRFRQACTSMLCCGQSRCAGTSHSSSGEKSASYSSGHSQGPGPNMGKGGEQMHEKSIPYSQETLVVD
Kind of assay: In vitro apelin agonist activity (methods of Giddings et al., Apelin-13 as positive control). It is filed as cell-based. The settings on record: EC50 (nM) Ave, in vitro apelin agonist activity, methods of Giddings et al., Apelin-13 as positive control. The text has this:
Characterization of the Apelin Agonist Activity of the Compounds
1:39-47, the contents of which are hereby incorporated by reference in its entirety. Using the methods described in Giddings et al. and Apelin-13 as a positive control.
On to `O=C(C[C@H](CN1CCC(F)(F)C1)NC(=O)c1cc(-c2ccccc2C(F)(F)F)n(C2CCCC2)n1)NC1CCC1` [compound 523, (3R)-N-cyclobutyl-3-({1-cyclopentyl-5-[2-(trifluoromethyl)phenyl]-1H-pyrazol-3-yl}formamido)-4-(3,3-difluoropyrrolidin-1-yl)butanamide], for which the 50% effective concentration (EC50) (in general, the concentration at which the effect is half-maximal) is 1210 nM.

Still in this assay, the particulars now being: in vitro apelin agonist activity, methods of Giddings et al., Apelin-13 as positive control; read-out: EC50 (nM) Ave.
As for `Cc1cnn(CC[C@@H](CC(=O)N(C)c2nccs2)NC(=O)c2cc(-c3ccccc3C(F)(F)F)n(C3CCCC3)n2)c1` [compound 500, (3S)-3-({1-cyclopentyl-5-[2-(trifluoromethyl)phenyl]-1H-pyrazol-3-yl}formamido)-N-methyl-5-(4-methyl-1H-pyrazol-1-yl)-N-(1,3-thiazol-2-yl)pentanamide], the EC50 was found to be 79 nM.
In the case of `Cc1cnn(CC[C@@H](CC(=O)NC2CCC2)NC(=O)c2cc(-c3ccccc3C(F)(F)F)n(C3CCCC3)n2)c1` [compound 501, (3S)-N-cyclobutyl-3-({1-cyclopentyl-5-[2-(trifluoromethyl)phenyl]-1H-pyrazol-3-yl}formamido)-5-(4-methyl-1H-pyrazol-1-yl)pentanamide], the 50% effective concentration (EC50) came to 26 nM.
The same measure, in the same setting: the figure for `Cc1cc(C)n(CC[C@@H](CC(=O)N(C)c2nccs2)NC(=O)c2cc(-c3ccccc3C(F)(F)F)n(C3CCCC3)n2)n1` [compound 502, (3S)-3-({1-cyclopentyl-5-[2-(trifluoromethyl)phenyl]-1H-pyrazol-3-yl}formamido)-5-(3,5-dimethyl-1H-pyrazol-1-yl)-N-methyl-N-(1,3-thiazol-2-yl)pentanamide] is 77 nM.
The same measure, in the same setting: to `Cc1cc(C)n(CC[C@@H](CC(=O)NC2CCC2)NC(=O)c2cc(-c3ccccc3C(F)(F)F)n(C3CCCC3)n2)n1` [compound 503, (3S)-N-cyclobutyl-3-({1-cyclopentyl-5-[2-(trifluoromethyl)phenyl]-1H-pyrazol-3-yl}formamido)-5-(3,5-dimethyl-1H-pyrazol-1-yl)pentanamide] belongs 157 nM; to `O=C(C[C@H](CCN1CCCC1)NC(=O)c1cc(-c2ccccc2C(F)(F)F)n(C2CCCC2)n1)NC1CCC1` [compound 504, (3S)-N-cyclobutyl-3-({1-cyclopentyl-5-[2-(trifluoromethyl)phenyl]-1H-pyrazol-3-yl}formamido)-5-(pyrrolidin-1-yl)pentanamide], 59 nM; to `O=C(C[C@H](CCN1CCCCCC1)NC(=O)c1cc(-c2ccccc2C(F)(F)F)n(C2CCCC2)n1)NC1CCC1` [compound 505, (3S)-5-(azepan-1-yl)-N-cyclobutyl-3-({1-cyclopentyl-5-[2(trifluoromethyl)phenyl]-1H-pyrazol-3-yl}formamido)pentanamide], 34 nM.
The same measure, in the same setting: the figure for `CN(CC[C@@H](CC(=O)NC1CCC1)NC(=O)c1cc(-c2ccccc2C(F)(F)F)n(C2CCCC2)n1)C1CCC1` [compound 506, (3S)-N-cyclobutyl-5-[cyclobutyl(methyl)amino]-3-({1-cyclopentyl-5-[2-(trifluoromethyl)phenyl]-1H-pyrazol-3-yl}formamido)pentanamide] is 32 nM; for `O=C(O)C[C@H](CC(=O)N1CCCCC1)NC(=O)c1cc(-c2ccccc2C(F)(F)F)n(C2CCCC2)n1` [compound 508, (3S)-3-({1-cyclopentyl-5-[2-(trifluoromethyl)phenyl]-1H-pyrazol-3-yl}formamido)-5-oxo-5-(piperidin-1-yl)pentanoic acid] it is 475 nM.
`O=C(O)C[C@H](CC(=O)N1CCCC(F)(F)C1)NC(=O)c1cc(-c2ccccc2C(F)(F)F)n(C2CCCC2)n1` [compound 509, (3S)-3-({1-cyclopentyl-5-[2-(trifluoromethyl)phenyl]-1H-pyrazol-3-yl}formamido)-5-(3,3-difluoropiperidin-1-yl)-5-oxopentanoic acid]: the 50% effective concentration (EC50) was 1060 nM.
With `O=C(C[C@H](CCc1ccc(F)cc1)NC(=O)c1cc(-c2ccccc2C(F)(F)F)n(C2CCCC2)n1)NN1CCCC1` [compound 510, (3S)-3-({1-cyclopentyl-5-[2-(trifluoromethyl)phenyl]-1H-pyrazol-3-yl}formamido)-5-(4-fluorophenyl)-N-(pyrrolidin-1-yl)pentanamide], the EC50 was 2190 nM.
Same read-out and setting: to `CN(CC[C@@H](CC(=O)NC1CCC1)NC(=O)c1cc(-c2ccccc2C(F)(F)F)n(C2CCCC2)n1)C1(C)CCCC1` [compound 511, (3S)-N-cyclobutyl-3-({1-cyclopentyl-5-[2-(trifluoromethyl)phenyl]-1H-pyrazol-3-yl}formamido)-5-[methyl(1-methylcyclopentyl)amino]pentanamide] belongs 35 nM; to `O=C(C[C@H](CC(=O)N1CCCCC1)NC(=O)c1cc(-c2ccccc2C(F)(F)F)n(C2CCCC2)n1)NC1CCC1` [compound 514, (3R)-N-cyclobutyl-3-({1-cyclopentyl-5-[2-(trifluoromethyl)phenyl]-1H-pyrazol-3-yl}formamido)-5-oxo-5-(piperidin-1-yl)pentanamide], 79 nM; to `O=C(C[C@H](CC(=O)N1CCCC(F)(F)C1)NC(=O)c1cc(-c2ccccc2C(F)(F)F)n(C2CCCC2)n1)NC1CCC1` [compound 515, (3R)-N-cyclobutyl-3-({1-cyclopentyl-5-[2-(trifluoromethyl)phenyl]-1H-pyrazol-3-yl}formamido)-5-(3,3-difluoropiperidin-1-yl)-5-oxopentanamide], 47 nM.
Same read-out and setting: to `CC1(C)CCCCN1CC[C@@H](CC(=O)NC1CCC1)NC(=O)c1cc(-c2ccccc2C(F)(F)F)n(C2CCCC2)n1` [compound 517, (3S)-N-cyclobutyl-3-({1-cyclopentyl-5-[2-(trifluoromethyl)phenyl]-1H-pyrazol-3-yl}formamido)-5-(2,2-dimethylpiperidin-1-yl)pentanamide] belongs 261 nM.
Same read-out and setting: to `O=C(O)C[C@H](CN1CCC(F)(F)C1)NC(=O)c1cc(-c2ccccc2C(F)(F)F)n(C2CCCC2)n1` [compound 518, (3R)-3-({1-cyclopentyl-5-[2-(trifluoromethyl)phenyl]-1H-pyrazol-3-yl}formamido)-4-(3,3-difluoropyrrolidin-1-yl)butanoic acid] belongs > 10000 nM; to `O=C(O)C[C@H](CN1CCCC(F)(F)C1)NC(=O)c1cc(-c2ccccc2C(F)(F)F)n(C2CCCC2)n1` [compound 519, (3R)-3-({1-cyclopentyl-5-[2-(trifluoromethyl)phenyl]-1H-pyrazol-3-yl]formamido)-4-(3,3-difluoropiperidin-1-yl)butanoic acid], > 10000 nM.
With `O=C(C[C@H](CCN1CCCCC1)NC(=O)c1cc(-c2ccccc2C(F)(F)F)n(C2CCCC2)n1)NC1CC(F)(F)C1` [compound 520, (3S)-3-({1-cyclopentyl-5-[2-(trifluoromethyl)phenyl]-1H-pyrazol-3-yl}formamido)-N-(3,3-difluorocyclobutyl)-5-(piperidin-1-yl)pentanamide], the concentration giving a half-maximal response (EC50) is 45 nM.
Consider `O=C(C[C@H](CCN1CC2CCC1CC2)NC(=O)c1cc(-c2ccccc2C(F)(F)F)n(C2CCCC2)n1)NC1CCC1` [compound 521], for which the half-maximal effective concentration (EC50) came to 100 nM.
On the same count and under the same terms, to `O=C(C[C@H](CCN1CCCCC12COC2)NC(=O)c1cc(-c2ccccc2C(F)(F)F)n(C2CCCC2)n1)NC1CCC1` [compound 522] belongs 64 nM.
